Data published in patent publication US20090004207A1, “Methods and Compositions for Inhibiting Pathological Angiogenesis in the Eye” (priority 2007, published 2009).

Experiments:
[1] = tested on: human COX-2 promoter (phPES2); experiment: Human COX-2 promoter (phPES2) luciferase reporter activity in EOMA cells; assay type: cell-based; conditions: mouse hemangioendothelioma cells (EOMA); 100 nM for 5 hours
Protocol: Cells transfected with phPES2(−1432/+59) luciferase reporter were treated with PMA (100 nM, positive control). Results from one representative experiment is shown (*P<0.01, […], n=4).
EOMA cultures (3×10^5 cells/well) on 6-well plate were grown one day before the transfection. To measure transfection efficiency, cells were co-transfected with pCMV-βgal. For each well, 0.3 μg of the luciferase reporter vector phPES2(−1432/+59), 0.3 μg of the gene of interest (pcDNA3.1-S1p2 or pcDNA3.1-S1p1) and 25 ng of pCMV-βgal mixed with Lipofectin 2000 (Invitrogen) were introduced into the cells as described by the manufacturer. 24 hours after transfection, cells were treated with PMA (100 nm) for 5 hours, if necessary. Cells were harvested and luciferase and β-galactosidase activity were determined with Luciferase assay system (Promega) and Western-light and western-star system (Applied Biosystems) respectively. The amount of plasmid DNA was made constant by adding pcDNA 3.1 and luciferase activity was normalized to μg of protein content.
In addition, it was tested if S1P2 receptor can induce the transcription of the COX-2 gene. For this experiment, the human COX-2 promoter (phPES2) driven reporter activity was measured in transfected endothelial cells. […]

[2] = tested on: Bovine retinal endothelial cells; experiment: Boyden chamber cell migration assay, S1P-stimulated; assay type: cell-based; conditions: 1 μM, S1P 100 nM
Protocol: Bovine retinal endothelial cells were tested to see if JTE013, a specific S1P2 receptor antagonist, would influence normal endothelial cell functions, such as cell migration stimulated by S1P. […] In contrast, VPC44116, a specific inhibitor of S1P1 receptor blocked normal endothelial cell migration stimulated by S1P in these cells.

Structure (SMILES) | induction of phPES2 (−1432/+59) promoter activity [1] [fold] | endothelial cell migration stimulated by S1P [2]
CCCCCCCCCCCCCC(=O)O[C@@H]1[C@@H](C)[C@@]2(O)[C@@H](C=C(CO)C[C@]3(O)C(=O)C(C)=C[C@@H]23)[C@@H]2C(C)(C)[C@]12OC(C)=O [PMA] | 1.83 | 
CCCCCCCCc1cccc(NC(=O)[C@H](N)CCP(=O)(O)O)c1 [VPC44116] |  | blocked
